Reference: article PMC6100703, “Rapid, simple, and clinically applicable high-performance liquid chromatography method for clinical determination of plasma colistin concentrations” (Journal of Pharmaceutical Health Care and Sciences, 2018)
≈ marks a conversion by molar mass, not a printed value. Where two headings read alike, the source gives them in different places.

Key:
[1] = Derivative stability (FMOC-Cl derivatives in eluted solution); type: physicochemical; conditions: mean ± SD; for Refrigerated, recovery relative to freshly prepared samples: 4 °C; for Refrigerated, recovery relative to freshly prepared samples / Room temperature, recovery relative to freshly prepared samples / Frozen, recovery relative to freshly prepared samples: 7 d, HPLC-fluorescence peak area; for Refrigerated, recovery relative to freshly prepared samples / Frozen, recovery relative to freshly prepared samples: dark; for Room temperature, recovery relative to freshly prepared samples: 25 ± 1 °C, normal fluorescent light; for Freeze-thaw, recovery relative to freshly prepared samples: three cycles −23 °C to room temperature on consecutive days; for Frozen, recovery relative to freshly prepared samples: −23 °C, closed glass test tubes
Method: The derivative stabilities of the samples containing 0.10 and 8.0 μg/mL of the standard colistin solution and the internal standard were evaluated at − 23 (frozen), 4 (refrigerated), and 25 ± 1 °C (room temperature) over 7 d. Freeze-thaw stability was assessed after three complete freeze-thaw cycles (− 23 °C to room temperature) on consecutive days. The stability of the target compounds was presented as the recovery (%) relative to the freshly prepared samples. The solutions at room temperature were exposed to normal fluorescent light, while the frozen and refrigerated samples were stored in a dark refrigerator and were exposed to light only during sampling. The storage temperatures were closely monitored throughout the study.

[2] = system: MDRP with metallo-beta-lactamase (multidrug-resistant Pseudomonas aeruginosa); assay: Minimum inhibitory concentrations for the blood culture isolate of the patient; type: cell-based; conditions: for MIC: Pseudomonas aeruginosa, read-out: minimum inhibitory concentration
[3] = Plasma colistin concentration of a haemodialysis patient on CMS therapy (HPLC with fluorescence detection); type: in vivo, human; conditions: K2-EDTA plasma; for colistin concentration in plasma: HD patient
Method: HPLC analysis was performed at 25 ± 1 °C under isocratic conditions. All measurements were carried out at excitation and emission wavelengths of 260 nm and 315 nm, respectively, and the column temperature was maintained at 40 °C. The mobile phase consisted of a mixture of acetonitrile/tetrahydrofuran/distilled water (50:14:20, v/v/v) and was delivered at a flow rate of 1.6 mL/min. The sample injection volume was 50 μL.
Initially, the colistin and the internal standard (netilmicin sulfate, 20 μL) stock solutions were added to a portion of serum (200 μL). Following the addition of methanol (25 μL) and 10% trichloroacetic acid (25 μL) to the sample, it was vortexed for 10 s prior to centrifugation at 13,000 rpm for 5 min. The supernatant was then placed in an additional centrifuge tube and mixed with a 1 M sodium hydroxide solution (10 μL). The sample solution was loaded onto the solid-phase extraction (SPE) cartridge, which had been previously conditioned according to the following procedure.
SPE C18 cartridges (55 μm, 100 mg/mL; Phenomenex, Torrance, USA) were conditioned using acetone (1 mL) and methanol (1 mL) and equilibrated with 1% carbonate buffer (1 mL). The sample was then applied to the wet cartridge. After passing the sample through the cartridge, it was rinsed with methanol (1 mL) and carbonate buffer (1 mL), followed by a 100 mM FMOC-Cl solution (60 μL) and 90% methanol (3 mL). The derivatives were then eluted into a glass culture tube using acetone (500 μL). The eluted solution was mixed with a 0.6 M boric acid solution (100 μL) prior to vortex-mixing for 10 s, and then the obtained sample was injected into the HPLC system. All procedures were conducted at 25 ± 1 °C.
(§1) A patient (weight 52 kg, height 153.2 cm) with antineutrophilic cytoplasmic antibody-positive vasculitis undergoing renal replacement (intermittent haemodialysis, HD) was admitted to the hospital for rituximab and steroid pulse therapy. The HD patient’s disease had been complicated by Pneumocystis jiroveci pneumonia, herpes zoster, and MDRP infections. […] With the preliminary information of positive blood cultures, empiric treatment with cefepime (1 g every 12 h) was performed over 5 d. […] In addition, the following treatment parameters were employed: dialysate flow rate, 500 mL/min; blood flow rate, 100 mL/min; membrane surface area, 1.5 m^2; membrane type, APS-15MD New; HD frequency, twice per week; and session duration, 3 h. Samples were collected immediately prior to a dose or immediately prior to the next dose if CMS was not being administered every 24 h. The actual times of CMS administration and blood sampling were recorded. Samples were collected in potassium (K)2-ethylenediaminetetraacetic acid (EDTA)-containing tubes and centrifuged for 15 min within 2 h of collection. The resulting plasma sample was measured on the same day as blood collection. The HD clearance (CLHD) for colistin was calculated every hour during the start and end of the HD session as:
CMS was administered to the HD patient over 7 d (days 6–12), and six samples of blood were collected between days 7 and 12 of CMS therapy (Fig. 3). The initial sample was collected on day 7 approximately 20 h after the administration of CMS. All other samples were collected ~ 24 h after each dose. On the day of dialysis, the blood samples were collected at the start and end of the HD session.

[4] = parameters: method as in 2 sources, ref Sorlí et al. [24] ||| ref Garonzik et al. [25]; conditions: cited from earlier work
[5] = human, in vivo
Method: as §1, with “as: […]” for “as:”

[6] = system: multidrug-resistant Pseudomonas aeruginosa infection; conditions: HD patient with MDRP infection; CMS 75 mg every 24 h after loading dose 250 mg, in combination with meropenem 1 g every 24 h; after a few days
Method: as §1, with “as: […]” for “as:”

[7] = blood cultures from two peripheral vein sites of the HD patient, MDRP with metallo-beta-lactamase
[8] = critically ill patients, including those on HD and continuous renal replacement, ref Garonzik et al. [25]
[9] = patients suffering from nephrotoxicity, ref Sorlí et al. [24]

Compound: CCN[C@@H]1C[C@H](N)[C@@H](O[C@H]2OC(CN)=CC[C@H]2N)[C@H](O)[C@H]1O[C@H]1OC[C@](C)(O)[C@H](NC)[C@H]1O [Netilmicin, netilmicin]
- Refrigerated, recovery relative to freshly prepared samples ([1]; 0.10 μg/mL): 104 ± 2%
- Room temperature, recovery relative to freshly prepared samples ([1]; 0.10 μg/mL): 102 ± 3%
- Freeze-thaw, recovery relative to freshly prepared samples ([1]; 0.10 μg/mL): 98 ± 3%
- Frozen, recovery relative to freshly prepared samples ([1]; 0.10 μg/mL): 102 ± 3%
- Refrigerated, recovery relative to freshly prepared samples ([1]; 8.00 μg/mL): 101 ± 2%
- Room temperature, recovery relative to freshly prepared samples ([1]; 8.00 μg/mL): 103 ± 2%
- Freeze-thaw, recovery relative to freshly prepared samples ([1]; 8.00 μg/mL): 102 ± 2%
- Frozen, recovery relative to freshly prepared samples ([1]; 8.00 μg/mL): 103 ± 3%

Compound: C[C@H]1[C@H](NC(=O)/C(=N\OC(C)(C)C(=O)O)c2csc(N)n2)C(=O)N1S(=O)(=O)O [aztreonam]
- MIC [2]: 16 µg/mL (≈ 36.7 µM)

Compound: C[C@@H](O)[C@H]1C(=O)N2C(C(=O)O)=C(S[C@@H]3CN[C@H](C(=O)N(C)C)C3)[C@H](C)[C@H]12 [meropenem]
- MIC [2, 7]: > 8 µg/mL

Compound: NCC[C@H](O)C(=O)N[C@@H]1C[C@H](N)[C@@H](O[C@H]2O[C@H](CN)[C@@H](O)[C@H](O)[C@H]2O)[C@H](O)[C@H]1O[C@H]1O[C@H](CO)[C@@H](O)[C@H](N)[C@H]1O [amikacin]
- MIC [2, 7]: > 16 µg/mL

Compound: CNC(C)C1CCC(N)C(OC2C(N)CC(N)C(OC3OCC(C)(O)C(NC)C3O)C2O)O1 (stereo not drawn) [gentamicin]
- MIC [2, 7]: > 16 µg/mL

Compound: colistin A
- Refrigerated, recovery relative to freshly prepared samples ([1]; 0.10 μg/mL): 100 ± 1%
- Room temperature, recovery relative to freshly prepared samples ([1]; 0.10 μg/mL): 102 ± 3%
- Freeze-thaw, recovery relative to freshly prepared samples ([1]; 0.10 μg/mL): 97 ± 3%
- Frozen, recovery relative to freshly prepared samples ([1]; 0.10 μg/mL): 105 ± 3%
- Refrigerated, recovery relative to freshly prepared samples ([1]; 8.00 μg/mL): 100 ± 3%
- Room temperature, recovery relative to freshly prepared samples ([1]; 8.00 μg/mL): 99 ± 2%
- Freeze-thaw, recovery relative to freshly prepared samples ([1]; 8.00 μg/mL): 100 ± 2%
- Frozen, recovery relative to freshly prepared samples ([1]; 8.00 μg/mL): 102 ± 2%

Compound: CCN1CCN(C(=O)N[C@@H](C(=O)N[C@@H]2C(=O)N3[C@@H]2SC(C)(C)[C@@H]3C(=O)O)c2ccccc2)C(=O)C1=O [piperacillin]
- MIC [2, 7]: 8 µg/mL (≈ 15.5 µM)

Compound: CO/N=C(\C(=O)N[C@@H]1C(=O)N2C(C(=O)[O-])=C(C[N+]3(C)CCCC3)CS[C@H]12)c1csc(N)n1 [cefepime]
- MIC [2]: > 32 µg/mL

Compound: CN(C)c1ccc(O)c2c1C[C@H]1C[C@H]3[C@H](N(C)C)C(O)=C(C(N)=O)C(=O)[C@@]3(O)C(O)=C1C2=O [minocycline]
- MIC [2, 7]: > 8 µg/mL

Compound: colistin
- colistin concentration in plasma ([3]; day 7, approximately 20 h after administration of CMS (loading dose 250 mg)): 7.85 µg/mL
- colistin concentration in plasma ([3]; day 8, ~24 h after dose, CMS 75 mg every 24 h): 5.95 µg/mL
- colistin concentration in plasma ([3]; day 9, ~24 h after dose, CMS 75 mg every 24 h): 3.91 µg/mL
- colistin concentration in plasma ([3]; day 12, ~24 h after dose, CMS 75 mg every 24 h): 3.70 µg/mL
- colistin concentration in plasma at the end of the HD session ([3]; day 10, end of 3 h HD session): 2.75 µg/mL
- colistin concentration in plasma at the start of the HD session ([3]; day 10, start of 3 h HD session): 4.57 µg/mL
- average steady-state concentration of colistin, median [4, 8]: 2.36 µg/mL
- average steady-state concentration of colistin, range [4, 8]: 0.48 to 9.38 µg/mL
- minimal concentration of colistin, median [4, 9]: 1.18 µg/mL
- minimal concentration of colistin, range [4, 9]: 0.16 to 5.99 µg/mL
- peak concentration of colistin, median [4, 9]: 1.81 µg/mL
- peak concentration of colistin, range [4, 9]: 0.16 to 6.12 µg/mL
- minimum inhibitory concentration [2, 7]: ≤ 1 µg/mL
- HD clearance (CLHD) [5]: 30.7 mL/min

Compound: CC(C)(O/N=C(\C(=O)N[C@@H]1C(=O)N2C(C(=O)[O-])=C(C[n+]3ccccc3)CS[C@H]12)c1csc(N)n1)C(=O)O [ceftazidime]
- MIC [2, 7]: > 32 µg/mL

Compound: O=C(O)c1cn(C2CC2)c2cc(N3CCNCC3)c(F)cc2c1=O [ciprofloxacin]
- MIC [2]: > 4 µg/mL

Compound: colistin B
- Refrigerated, recovery relative to freshly prepared samples ([1]; 0.10 μg/mL): 102 ± 2%
- Room temperature, recovery relative to freshly prepared samples ([1]; 0.10 μg/mL): 102 ± 2%
- Freeze-thaw, recovery relative to freshly prepared samples ([1]; 0.10 μg/mL): 102 ± 3%
- Frozen, recovery relative to freshly prepared samples ([1]; 0.10 μg/mL): 105 ± 2%
- Refrigerated, recovery relative to freshly prepared samples ([1]; 8.00 μg/mL): 98 ± 3%
- Room temperature, recovery relative to freshly prepared samples ([1]; 8.00 μg/mL): 101 ± 2%
- Freeze-thaw, recovery relative to freshly prepared samples ([1]; 8.00 μg/mL): 99 ± 3%
- Frozen, recovery relative to freshly prepared samples ([1]; 8.00 μg/mL): 100 ± 3%

Compound: colistin methanesulfonate [CMS]
- blood cultures after switching to CMS therapy [6]: negative
